Results from US20240125703A1, “SYSTEMS AND METHODS FOR Q[…] OBSERVED VISUALIZATION OF FL[…] AGENTS” (Stryker Corporation, priority 2022, published 2024).

How the values were obtained:
[1] = Urine concentration of pudexacianinium in minipigs; assay type: in vivo, Gottingen minipigs; conditions: 0.01 mg/kg; over 3 hour observation period
Experimental: A direct translation of the nonclinical pharmacology visualization results in the intended clinical use and dose in humans is considered feasible given the simple elimination route of the dye in both cases (eliminated entirely through renal system) and given the physiologic comparability between porcine and human kidneys. The 0.01 mg/kg dose used in pigs translates to an approximate human equivalent dose of 0.7-0.8 mg/participant. This is consistent with the dose recommendation for the clinical Phase 3 study (1 mg/participant).

[2] = In vitro NIR-F of ASP5354 in 96 well plates, microplate reader (excitation 780 nm, emission 820 nm); assay type: physicochemical; conditions: 0.01-1000 μg/mL in 96 well plates
Experimental: The following example illustrates using a measure of visual enhancement of the anatomy of interest in a color image (a contrast enhancement factor), generated according to method 100, as an alternative to biological samples for bioequivalence and bioavailability assessments of a fluorescence imaging agent, in particular the fluorescence dye ASP5354 (pudexacianinium). In this example, two in vitro studies were performed to determine the effect of ASP5354 concentration on near-infrared fluorescence (NIR-F). In the first study, ASP5354 (0.01-1000 μg/mL) was added to 96 well plates, the plates placed in a microplate reader, and subjected to a near-infrared excitation frequency of 780 nm. The emitted NIR-F determined at a wavelength of 820 nm. The fluorescence intensity increased as the concentration of pudexacianinium increased and tended to plateau at concentrations greater than or equal to 100 μg/mL.

ureter(s) = assay: Phase 2 dose ranging study, Visualization Review Committee (VRC) assessment of ureter visualization; assay type: in vivo, human
Text: The results from the Phase 1 study provided the foundation for Phase 2 study, a randomized open-label, dose ranging study for ureter visualization, using ASP5354 in participants undergoing laparoscopic/minimally invasive colorectal surgery.
The results of the Phase 2 study support the use of pudexacianinium as an intraoperative ureter visualization (surgeon's ability to identify/locate the ureter from the surrounding structures) during the entire abdominopelvic surgical procedure. […] As a result, the VRC recommended moving forward with the 1 mg per participant dose for Phase 3.

ureters [3] = assay: Qualitative in vivo ureter visualization in Yorkshire pig (Stryker 1588 AIM System and SPY-PHI open field system); conditions: 0.01 mg/kg, iv; either imaging system; prior to any dissection
Experimental: In a second qualitative in vivo study, pudexacianinium (0.01 mg/kg, iv) was injected into a healthy female Yorkshire pig and the ureters were visualized using examples of an image guided surgery system 10 of FIG. 1A—a Stryker Corporation 1588 AIM System and a Stryker Corporation SPY-PHI open field system—prior to any dissection.

pig ureters ex vivo = assay: NIR-F of pudexacianinium instilled in pig ureters ex vivo (PDE-NEO NIR-F imager); conditions: for NIR-F Intensity: mean, three ureters
Experimental: In the second study, pudexacianinium (0.01-10 μg/mL) was instilled in pig ureters ex vivo and the NIR-F determined using a PDE-NEO NIR-F imager. Here too, the NIR-F intensity increased with increasing concentrations of pudexacianinium with the fluorescence intensity tending to plateau at concentrations equal to or greater than 1 μg/mL, as shown in the table below. Thus, the fluorescence activity of pudexacianinium can be visualized in the lumen of ureters.

ureters [4] = assay: Contrast quantification / contrast enhancement factor (CEF) from surgical video frames of ureters, laparoscopic/minimally invasive colorectal surgery (Phase 2); assay type: in vivo, human; conditions: for contrast quantification: single subject, 1.0 mg dose
Experimental: The following example illustrates using contrast quantification, according to method 100, to assess the visual effectiveness of different fluorescence imaging agent doses. In this example, subjects undergoing laparoscopic/minimally invasive colorectal surgery received doses of either 0.3 mg, 1.0 mg, or 3 mg of pudexacianinium chloride (Chemical formula (A))—an indocyanine-green derivative fluorescence imaging agent with hydrophilic properties and rapid urinary clearance without metabolism after intravenous administration—at the start of the minimally invasive surgery procedure and the normal colectomy was completed.
At pre-specified time intervals during the surgery, the surgeon utilized a fluorescence visualization system to examine the retroperitoneum and attempted to visualize the ureters. The surgical videos generated by the fluorescence visualization system were recorded. Frames from these surgical videos were analyzed according to method 100 to quantify the color contrast observable by the surgeon when a bolus of the fluorescence imaging agent passed through the ureters.
Baseline and fluorescence-containing images for a subject who received a 1.0 mg dose of the fluorescence imaging agent are illustrated in FIG. 5—baseline image 400 and fluorescence-containing image 402. The color images 400, 402 are full color surgical video frames generated by a fluorescence visualization system that combines full color and fluorescence frames into a combined frame in which the fluorescence signal is captured in the green component of the frame. The color images 400, 402 capture a portion of a ureter, which is visible in bright green in fluorescence-containing image 402. The fluorescence-containing image 402 was captured while a bolus of the fluorescence imaging agent was present in the portion of the ureter within the field of view, and the baseline image 400 was captured shortly after the bolus of the fluorescence imaging agent had at least partially passed through the portion of the ureter.
Each of the color images 400, 402 was imported in a video analysis software and exported as separate greyscale bitmaps of the red (R), green (G) and blue (B) color components corresponding to each full color image frame.
Next, a line was plotted that transects the ureter at the same location on both the fluorescence-containing and baseline bitmaps for each R, G, and B color component. Graphs were subsequently created that plot the bitmap signal intensity values at each point along the line segment against position on the line segment for each line segment in each color component. Red, green and blue graphs were constructed for each pair of fluorescence-containing — baseline color components. Exemplary graphs are illustrated in FIGS. 7A-C, which include the graphs for each color component for the fluorescence-containing image (“dye”) and baseline image (“no-dye”) on the same plot. FIG. 7A is the graph for the red color component for the fluorescence-containing and baseline images, FIG. 7B is the graph for the blue color component for the fluorescence-containing and baseline images, and FIG. 7C is the graph for the green color component for the fluorescence-containing and baseline images,
At least the graph for the green component was then analyzed to identify, according to steps 104 and 106 of method 100, regions along the line segment (shown in FIG. 7D as position 0-300) that—by comparison with the bitmap—lie clearly inside the anatomical boundaries of the ureter (a region encompassed by the anatomy of interest according to step 104) or clearly outside of those same anatomical boundaries (a region not encompassed by the anatomy of interest according to step 106). Note that the “inside” and “outside” regions are different for the fluorescence imaging agent (“dye”) and baseline (“no Dye”) images due to the differences in the field of view of the color images. […]

ureters [5] = assay: In vivo ureter visualization in Gottingen minipigs, NIR-F camera, visual assessment by three clinicians
Experimental: Next, the ability to visualize ureters in vivo was assessed in Gottingen minipigs. The animals were anesthetized, laparotomized and then intravenously injected with pudexacianinium (0.001 or 0.01 mg/kg). Videos of the abdominal cavity were taken using a NIR-F camera and assessed visually by three independent clinicians for up to three hours.

[6] = Dye in ureter, 1 mg (N = 6) including expansion
[7] = No Dye in ureter, 0.3 mg (N = 3)
[8] = No Dye in ureter, 1 mg (N = 6) including expansion

In the case of pudexacianinium chloride, the “urine concentration of pudexacianinium” value [1] is reported as 1 to 6 µg/mL, the “concentration at which fluorescence intensity tended to plateau” value [2] is reported as “greater than or equal to 100 μg/mL” and the “VRC: adequacy for ureter(s) visualization” value (ureter(s); 0.3 mg per participant) is reported as “inadequate for ureter(s) visualization”. For the same substance, the “VRC: ureter(s) visualization” value (ureter(s); 1 mg per participant, during procedure, at beginning and end) was “provided ureter(s) visualization during the surgical procedure”, the “VRC: difference in ureter(s) visualization between doses” value (ureter(s); 1 mg vs 3 mg dose) was “no notable differences” and the “VRC conclusion on ureter visualization under NIR-F conditions” value (ureter(s); all doses (0.3, 1, 3 mg per participant)) was “enhanced visualization of ureter(s)”. The “VRC: visualization throughout the duration of the surgical procedure” value (ureter(s); single dose of 1 mg and 3 mg per participant) was “consistently occurred”, the visibility of ureters (ureters [3]) was “readily visible” and the “NIR-F Intensity” value (pig ureters ex vivo; 0.01 ug/mL) was 0.000 arbitrary units. The “NIR-F Intensity” value (pig ureters ex vivo; 0.03 ug/mL) was 4.672 arbitrary units, the “NIR-F Intensity” value (pig ureters ex vivo; 0.1 ug/mL) was 47.945 arbitrary units and the “NIR-F Intensity” value (pig ureters ex vivo; 0.3 ug/mL) was 125.078 arbitrary units. The “NIR-F Intensity” value (pig ureters ex vivo; 1.0 ug/mL) was 229.504 arbitrary units, the “NIR-F Intensity” value (pig ureters ex vivo; 3.0 ug/mL) was 254.867 arbitrary units and the “NIR-F Intensity” value (pig ureters ex vivo; 10 ug/mL) was 254.808 arbitrary units. For the same substance, the “concentration at which NIR-F intensity tended to plateau” value (pig ureters ex vivo; 0.01-10 μg/mL in pig ureters ex vivo) was at least 1 µg/mL, the “Contrast quantification, Mean” value (ureters [4]; 0.3 mg, N 3, Baseline image) was 1.10 and the “Contrast quantification, Mean” value (ureters [4]; 0.3 mg, N 3, Fluorescence-containing image) was 1.84. For the same substance, the “proportion of data with CEF above 1.5” value (ureters [4]; 1 mg and 3 mg, dye) was at least 90%, the “Contrast quantification, Mean” value (ureters [4]; 1.0 mg, N 6, Fluorescence-containing image (first column of the dose)) was 2.55 and the “Contrast quantification, Mean” value (ureters [4]; 1.0 mg, N 6, head printed Fluorescence-containing image (second column of the dose)) was 1.06. For the same substance, the “Contrast quantification, Mean” value (ureters [4]; 3.0 mg, N 3, Fluorescence-containing image (first column of the dose)) was 3.23, the “Contrast quantification, Mean” value (ureters [4]; 3.0 mg, N 3, head printed Fluorescence-containing image (second column of the dose)) was 1.09 and the “CEF, Mean (SD)” value (ureters [4]; Dye in ureter, 0.3 mg (N = 3)) was 1.84 (0.46). The “CEF, Median” value (ureters [4]; Dye in ureter, 0.3 mg (N = 3)) was 1.77, the “CEF, Min-Max” value (ureters [4]; Dye in ureter, 0.3 mg (N = 3)) was 1.3-3.0 and the “CEF, Mean (SD)” value (ureters [4]; Dye in ureter, 1 mg (N = 3)) was 2.97 (1.03). The “CEF, Median” value (ureters [4]; Dye in ureter, 1 mg (N = 3)) was 2.96, the “CEF, Min-Max” value (ureters [4]; Dye in ureter, 1 mg (N = 3)) was 1.6-5.6 and the “CEF, Mean (SD)” value (ureters [4]; [6]) was 2.55 (0.95). The “CEF, Median” value (ureters [4]; [6]) was 2.28, the “CEF, Min-Max” value (ureters [4]; [6]) was 1.3-5.6 and the “CEF, Mean (SD)” value (ureters [4]; Dye in ureter, 3 mg (N = 3)) was 3.23 (1.70). The “CEF, Median” value (ureters [4]; Dye in ureter, 3 mg (N = 3)) was 2.64, the “CEF, Min-Max” value (ureters [4]; Dye in ureter, 3 mg (N = 3)) was 1.2-7.7 and the “CEF, Mean (SD)” value (ureters [4]; [7]) was 1.10 (0.13). The “CEF, Median” value (ureters [4]; [7]) was 1.05, the “CEF, Min-Max” value (ureters [4]; [7]) was 0.9-1.3 and the “CEF, Mean (SD)” value (ureters [4]; No Dye in ureter, 1 mg (N = 3)) was 1.06 (0.12). The “CEF, Median” value (ureters [4]; No Dye in ureter, 1 mg (N = 3)) was 1.07, the “CEF, Min-Max” value (ureters [4]; No Dye in ureter, 1 mg (N = 3)) was 0.8-1.3 and the “CEF, Mean (SD)” value (ureters [4]; [8]) was 1.06 (0.12). The “CEF, Median” value (ureters [4]; [8]) was 1.06, the “CEF, Min-Max” value (ureters [4]; [8]) was 0.8-1.4 and the “CEF, Mean (SD)” value (ureters [4]; No Dye in ureter, 3 mg (N = 3)) was 1.09 (0.10). The “CEF, Median” value (ureters [4]; No Dye in ureter, 3 mg (N = 3)) was 1.10, the “CEF, Min-Max” value (ureters [4]; No Dye in ureter, 3 mg (N = 3)) was 0.7-1.2 and the contrast quantification (ureters [4]; baseline image) was 1.3. The “contrast quantification value for the baseline images” value (ureters [4]; baseline images, absence of bolus) was “around 1”, the contrast quantification (ureters [4]; fluorescence imaging agent image) was 2.0 and the “CEF value, all data points” value (ureters [4]; no dye conditions) was “below 1.5”. The “reference CEF” value (ureters [4]; no dye present in the ureter) was about 1, the “animals demonstrating ureteral visualization for three hours” value (ureters [5]; 0.001 mg/kg intravenously) was “one out of three” and the “animals showing ureteral visualization for the full three hour observation period” value (ureters [5]; 0.01 mg/kg intravenously) was “three out of three”.
